The source of these data is US8926966B1 (Regents of the University of California, priority 1990, dated 2015).

This experiment deals with IDDM associated autoantibodies in sera. Briefly: ELISA of sera on plate-bound human GAD65 peptides. The format is binding. The conditions noted are these: for number of IDDM (at risk, pre-IDDM, at onset) patients positive (X) for the peptide (unlabelled sum line): IDDM sera of Table 11. On the procedure: Patient sera and most control sera were those used in a previous study (Kaufman, et al., J. Clin. Investigation, supra) All samples were coded and tested in a blind manner. Peptides were synthesized using an automatic instrument (Applied Biosystems, Foster City, Calif.) and standard conditions. Peptides were dissolved in 60 mM sodium bicarbonate buffer (pH 9.6) at 20 ug/ml and 100 ul of each was added to duplicated wells of a 96 well Nunc-Immuno Plate. Peptides were allowed to bind at 4° C. overnight. The plates were then washed three times with PBS+0.1% Tween 20 (wash buffer), after which the plates were pre-absorbed with 3% BSA in sodium bicarbonate buffer for 0.5 hours at 37° C., or at room temperature overnight. The plates were then washed 5 times with the above wash buffer. 100 ul of serum at a 1/300 dilution in PBS+0.1% Tween 20 and 1% BSA was added to each well and antibodies were allowed to bind for 1 hour at 37° C. The plates were washed 5 times with wash buffer. 100 ul of a 1/600 dilution of HRP-goat anti-human IgG (BRL, Gaithersberg, Md.) was added to each well and allowed to bind for 1 hour at 37° C. The plates were then washed 7 times and 100 ul of substrate buffer was added to each well for 30 minutes at room temperature. The color development was measured at 410 nm using an ELISA plate reader (ICN, Biomedicals, Costa Mesa, Calif.). Positive sera were defined as: OD410 of the sample/negative control ≧3.0.

Setting [1] is: IDDM At Onset serum 048, 1/300 dilution.
The mark [2] stands for this setting: IDDM At Onset serum 705, 1/300 dilution.
The mark [3] stands for this setting: IDDM At Risk serum 052, 1/300 dilution.
The mark [4] stands for this setting: IDDM At Risk serum 356, 1/300 dilution.
Setting [5] is: Pre-IDDM serum 723, 1/300 dilution.
Where [6] appears, read: Pre-IDDM serum P.T. (1), 1/300 dilution.
Setting [7] is: Pre-IDDM serum P.T. (2), 1/300 dilution.
[8] abbreviates: Pre-IDDM serum R.S. (1), 1/300 dilution.
Where [9] appears, read: Pre-IDDM serum R.S. (2), 1/300 dilution.
[10] abbreviates: control serum 4380, 1/300 dilution.
Setting [11] is: control serum 5620, 1/300 dilution.
[12] abbreviates: control serum 5748, 1/300 dilution.
[13] abbreviates: control serum A.P., 1/300 dilution.
Setting [14] is: control serum S.M., 1/300 dilution.

Take QPPRAAARKAACACDQKPCSC [Peptide 5]: the “immunoreactivity by both control and patient sera” value is “often positive”. Further, the “immunoreactivity of serum with GAD65 peptide” value (shortened to “immunoreactivity of serum”) under setting [1] was “X (X = positive for immunoreactivity as defined by 00/background^3.0)”. Further, the “immunoreactivity of serum” value (IDDM At Onset serum 291, 1/300 dilution) is listed as “X (X = positive for immunoreactivity as defined by 00/background^3.0)”. In addition, the “immunoreactivity of serum” value under setting [2] is “X (X = positive for immunoreactivity as defined by 00/background^3.0)”. Also, the “immunoreactivity of serum” value (IDDM At Onset serum S.H., 1/300 dilution) is reported as “X (X = positive for immunoreactivity as defined by 00/background^3.0)”. The “immunoreactivity of serum” value under setting [3] is recorded as “X (X = positive for immunoreactivity as defined by 00/background^3.0)”. For the same sequence, under setting [4], the “immunoreactivity of serum” value is “X (X = positive for immunoreactivity as defined by 00/background^3.0)”. The “immunoreactivity of serum” value (IDDM At Risk serum 825, 1/300 dilution) is “X (X = positive for immunoreactivity as defined by 00/background^3.0)”. The “immunoreactivity of serum” value (IDDM At Risk serum L.I., 1/300 dilution) is recorded as “X (X = positive for immunoreactivity as defined by 00/background^3.0)”. Moreover, the “immunoreactivity of serum” value under setting [5] was “X (X = positive for immunoreactivity as defined by 00/background^3.0)”. Further, the “immunoreactivity of serum” value (Pre-IDDM serum B.Y. (1), 1/300 dilution) is given as “X (X = positive for immunoreactivity as defined by 00/background^3.0)”. The “immunoreactivity of serum” value (Pre-IDDM serum B.Y. (2), 1/300 dilution) is given as “X (X = positive for immunoreactivity as defined by 00/background^3.0)”. In addition, the “immunoreactivity of serum” value (Pre-IDDM serum J.A., 1/300 dilution) was “X (X = positive for immunoreactivity as defined by 00/background^3.0)”. For the setting “Pre-IDDM serum J.B. (1), 1/300 dilution”, the “immunoreactivity of serum” value was “b (b = borderline response (00/background ?2.5-2.9).)”. In addition, the “immunoreactivity of serum” value (Pre-IDDM serum J.B. (2), 1/300 dilution) is reported as “X (X = positive for immunoreactivity as defined by 00/background^3.0)”. In addition, the “immunoreactivity of serum” value under setting [6] is listed as “X (X = positive for immunoreactivity as defined by 00/background^3.0)”. Besides, under setting [7], the “immunoreactivity of serum” value was “X (X = positive for immunoreactivity as defined by 00/background^3.0)”. In addition, the “immunoreactivity of serum” value under setting [8] is reported as “X (X = positive for immunoreactivity as defined by 00/background^3.0)”. Moreover, the “immunoreactivity of serum” value under setting [9] is “X (X = positive for immunoreactivity as defined by 00/background^3.0)”. The “immunoreactivity of serum” value (control serum 1688, 1/300 dilution) is “b (b = borderline response (00/background ?2.5-2.9).)”. For the same sequence, under setting [10], the “immunoreactivity of serum” value is “X (X = positive for immunoreactivity as defined by 00/background^3.0)”. Further, the “immunoreactivity of serum” value under setting [11] is listed as “X (X = positive for immunoreactivity as defined by 00/background^3.0)”. Under setting [12], the “immunoreactivity of serum” value is “X (X = positive for immunoreactivity as defined by 00/background^3.0)”. Moreover, the “immunoreactivity of serum” value under setting [13] was “X (X = positive for immunoreactivity as defined by 00/background^3.0)”. Further, the “immunoreactivity of serum” value (control serum FA2, 1/300 dilution) is “X (X = positive for immunoreactivity as defined by 00/background^3.0)”. Further, the “immunoreactivity of serum” value (control serum FA9, 1/300 dilution) is “X (X = positive for immunoreactivity as defined by 00/background^3.0)”. The “immunoreactivity of serum” value (control serum FA11, 1/300 dilution) is given as “X (X = positive for immunoreactivity as defined by 00/background^3.0)”. Further, the “immunoreactivity of serum” value (control serum H.B., 1/300 dilution) is on record as “b (b = borderline response (00/background ?2.5-2.9).)”. For the same sequence, for the setting “control serum P.T., 1/300 dilution”, the “immunoreactivity of serum” value is “X (X = positive for immunoreactivity as defined by 00/background^3.0)”. The “immunoreactivity of serum” value under setting [14] is “X (X = positive for immunoreactivity as defined by 00/background^3.0)”.
Consider SFDRSTKVIDFHYPNELLQE [Peptide 9], for which the “immunoreactivity by both control and patient sera” value is listed as “often positive”; the “number of IDDM (at risk, pre-IDDM, at onset) patients positive (X) for the peptide (unlabelled sum line)” value is 3. For the same sequence, the “number of control sera positive (X) for the peptide (unlabelled sum line)” value (13 control sera) is given as 2. Under setting [1], the “immunoreactivity of serum” value is “X (X = positive for immunoreactivity as defined by 00/background^3.0)”. The “immunoreactivity of serum” value under setting [3] was “b (b = borderline response (00/background ?2.5-2.9).)”. In addition, the “immunoreactivity of serum” value under setting [4] is “X (X = positive for immunoreactivity as defined by 00/background^3.0)”. Further, under setting [5], the “immunoreactivity of serum” value is reported as “X (X = positive for immunoreactivity as defined by 00/background^3.0)”. Further, under setting [6], the “immunoreactivity of serum” value was “b (b = borderline response (00/background ?2.5-2.9).)”. In addition, the “immunoreactivity of serum” value under setting [7] is “b (b = borderline response (00/background ?2.5-2.9).)”. For the same sequence, the “immunoreactivity of serum” value under setting [8] is “b (b = borderline response (00/background ?2.5-2.9).)”. Besides, under setting [9], the “immunoreactivity of serum” value was “b (b = borderline response (00/background ?2.5-2.9).)”. The “immunoreactivity of serum” value under setting [10] is listed as “b (b = borderline response (00/background ?2.5-2.9).)”. The “immunoreactivity of serum” value under setting [11] is recorded as “b (b = borderline response (00/background ?2.5-2.9).)”. Moreover, under setting [12], the “immunoreactivity of serum” value is “b (b = borderline response (00/background ?2.5-2.9).)”. The “immunoreactivity of serum” value under setting [13] is listed as “X (X = positive for immunoreactivity as defined by 00/background^3.0)”. Besides, the “immunoreactivity of serum” value under setting [14] is reported as “X (X = positive for immunoreactivity as defined by 00/background^3.0)”.
Regarding TNMFTYEIAPVFVLLEYVTL [Peptide 14], the “immunoreactivity of serum” value under setting [3] is recorded as “b (b = borderline response (00/background ?2.5-2.9).)”.
VNFFRMVISNPAATHQDIDF [Peptide 37]: the “number of IDDM (at risk, pre-IDDM, at onset) patients positive (X) for the peptide (unlabelled sum line)” value was determined as 2. Moreover, the “immunoreactivity of serum” value under setting [2] is reported as “X (X = positive for immunoreactivity as defined by 00/background^3.0)”. Under setting [5], the “immunoreactivity of serum” value is listed as “X (X = positive for immunoreactivity as defined by 00/background^3.0)”.
VPLQCSALLVREEGLMQNCNQ [Peptide 27]: the “immunoreactivity of serum” value under setting [14] is recorded as “b (b = borderline response (00/background ?2.5-2.9).)”.
